Results: ChEMBL document CHEMBL5500419, “Discovery of GPR84 Fluorogenic Probes Based on a Novel Antagonist for GPR84 Bioimaging” (J Med Chem, 2024)

Target: G-protein coupled receptor 84 (Homo sapiens, UniProt Q9NQS5)
Sequence (Q9NQS5 whole entry): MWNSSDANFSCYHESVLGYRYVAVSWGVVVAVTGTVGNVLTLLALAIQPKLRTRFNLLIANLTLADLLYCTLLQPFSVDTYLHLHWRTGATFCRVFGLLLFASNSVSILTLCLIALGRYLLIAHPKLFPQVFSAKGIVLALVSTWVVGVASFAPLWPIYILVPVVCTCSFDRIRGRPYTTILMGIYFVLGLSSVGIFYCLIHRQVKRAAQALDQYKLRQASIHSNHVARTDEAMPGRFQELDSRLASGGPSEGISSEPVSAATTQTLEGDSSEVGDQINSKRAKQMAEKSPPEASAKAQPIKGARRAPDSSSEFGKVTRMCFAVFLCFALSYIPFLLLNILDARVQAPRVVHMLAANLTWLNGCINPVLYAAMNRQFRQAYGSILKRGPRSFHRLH
Description: Antagonist activity at human GPR84 expressed in HEK293 cells co-expressing Galpha16 assessed as inhibition of 6-OAU-induced calcium response

IC50: > 100 µM
SMILES: Cc1cc2ccccc2c2c1OP(=O)(O)Oc1c(C)cc3ccccc3c1-2
